Results on nine compounds are retold here after ChEMBL document CHEMBL3132744, “Structureactivity relationship studies of miniproteins targeting the androgen receptorcoactivator interaction” (Medchemcomm, 2013).

Square brackets hold non-standard residues; d marks the D form. Peptide text beside a SMILES is read from it. Phe(2-Cl) = N[C@@H](Cc1ccccc1Cl)C(=O)O; Cha = N[C@@H](CC1CCCCC1)C(=O)O

This assay addresses T1, Androgen receptor (Homo sapiens, UniProt P10275).
T1 sequence (P10275 whole entry): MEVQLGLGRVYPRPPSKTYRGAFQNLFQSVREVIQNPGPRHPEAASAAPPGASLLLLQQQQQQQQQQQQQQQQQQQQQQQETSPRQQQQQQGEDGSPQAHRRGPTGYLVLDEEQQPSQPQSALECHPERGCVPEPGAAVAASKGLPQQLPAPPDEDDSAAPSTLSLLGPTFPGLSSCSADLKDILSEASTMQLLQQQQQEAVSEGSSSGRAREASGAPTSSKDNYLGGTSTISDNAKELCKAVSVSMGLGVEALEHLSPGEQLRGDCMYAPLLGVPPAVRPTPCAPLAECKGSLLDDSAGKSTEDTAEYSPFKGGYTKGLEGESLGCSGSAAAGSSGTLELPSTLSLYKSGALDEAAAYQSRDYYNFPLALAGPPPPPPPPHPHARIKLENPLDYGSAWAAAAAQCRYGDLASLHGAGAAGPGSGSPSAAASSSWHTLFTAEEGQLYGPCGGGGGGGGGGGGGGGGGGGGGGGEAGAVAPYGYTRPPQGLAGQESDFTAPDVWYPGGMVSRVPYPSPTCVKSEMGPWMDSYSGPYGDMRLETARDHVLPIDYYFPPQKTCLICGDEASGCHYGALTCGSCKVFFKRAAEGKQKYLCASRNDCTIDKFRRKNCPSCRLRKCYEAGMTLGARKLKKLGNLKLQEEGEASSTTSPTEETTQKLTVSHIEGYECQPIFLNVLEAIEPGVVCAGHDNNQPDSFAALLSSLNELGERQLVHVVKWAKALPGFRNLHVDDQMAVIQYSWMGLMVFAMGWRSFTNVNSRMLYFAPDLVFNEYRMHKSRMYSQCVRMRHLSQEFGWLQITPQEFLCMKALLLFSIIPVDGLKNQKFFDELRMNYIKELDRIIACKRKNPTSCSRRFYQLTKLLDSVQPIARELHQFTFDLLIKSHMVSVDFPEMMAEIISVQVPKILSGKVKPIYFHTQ
The experiment in a line: Displacement of fluorescein-CSSRFESLFAGEKESR from human androgen receptor-LBD after 1 hr by fluorescence polarization assay.
In turn, `CC[C@H](C)[C@H](NC(=O)[C@H](CS)NC(=O)[C@H](Cc1ccccc1)NC(=O)[C@H](CC(C)C)NC(=O)[C@H](CCC(=O)O)NC(=O)[C@H](CS)NC(=O)[C@H](Cc1ccccc1)NC(=O)[C@H](CC(C)C)NC(=O)[C@@H](N)CC(N)=O)C(=O)N[C@@H](CCC(N)=O)C(=O)NCC(=O)N[C@H](C(=O)NCC(=O)N[C@@H](CC(=O)O)C(=O)N[C@H](C(=O)N[C@@H](CCCCN)C(=O)N[C@@H](C)C(=O)N[C@@H](CS)C(=O)N[C@@H](CCC(=O)O)C(=O)N[C@@H](Cc1c[nH]c2ccccc12)C(=O)N[C@@H](C)C(=O)N[C@@H](CS)C(=O)N[C@@H](CCC(N)=O)C(=O)O)C(C)C)[C@@H](C)O` (H-NLFCELFCIQGTGDVKACEWACQ-OH) gave a Ki of 10 µM. The compound `CC(C)C[C@H](NC(=O)[C@H](CCC(=O)O)NC(=O)[C@H](CS)NC(=O)[C@H](Cc1ccccc1)NC(=O)[C@H](CCCNC(=N)N)NC(=O)[C@@H](N)CC(N)=O)C(=O)N[C@@H](Cc1ccccc1)C(=O)N[C@@H](CS)C(=O)N[C@@H](Cc1ccccc1)C(=O)N[C@@H](CCC(N)=O)C(=O)NCC(=O)N[C@H](C(=O)NCC(=O)N[C@@H](CC(=O)O)C(=O)N[C@H](C(=O)N[C@@H](CCCCN)C(=O)N[C@@H](C)C(=O)N[C@@H](CS)C(=O)N[C@@H](CCC(=O)O)C(=O)N[C@@H](Cc1c[nH]c2ccccc12)C(=O)N[C@@H](C)C(=O)N[C@@H](CS)C(=O)N[C@@H](CCC(N)=O)C(=O)O)C(C)C)[C@@H](C)O` (H-NRFCELFCFQGTGDVKACEWACQ-OH) displayed a Ki of 3.6 µM. The value for `CC[C@H](C)[C@H](NC(=O)[C@H](CS)NC(=O)[C@H](Cc1ccccc1)NC(=O)[C@H](CC(C)C)NC(=O)[C@H](CCC(=O)O)NC(=O)[C@H](CS)NC(=O)[C@H](Cc1ccccc1)NC(=O)[C@H](CCCNC(=N)N)NC(=O)[C@@H](N)CC(N)=O)C(=O)N[C@@H](CCC(=O)O)C(=O)NCC(=O)N[C@H](C(=O)NCC(=O)N[C@@H](CC(=O)O)C(=O)N[C@H](C(=O)N[C@@H](CCCCN)C(=O)N[C@@H](C)C(=O)N[C@@H](CS)C(=O)N[C@@H](CCC(=O)O)C(=O)N[C@@H](Cc1c[nH]c2ccccc12)C(=O)N[C@@H](C)C(=O)N[C@@H](CS)C(=O)N[C@@H](CCC(N)=O)C(=O)O)C(C)C)[C@@H](C)O` (H-NRFCELFCIEGTGDVKACEWACQ-OH) was 2.1 µM; that for `CC[C@H](C)[C@H](NC(=O)[C@H](CS)NC(=O)[C@H](Cc1ccccc1)NC(=O)[C@H](CC(C)C)NC(=O)[C@H](CCC(=O)O)NC(=O)[C@H](CS)NC(=O)[C@H](Cc1ccccc1)NC(=O)[C@H](CCCNC(=N)N)NC(=O)[C@@H](N)CC(N)=O)C(=O)N[C@@H](CCC(N)=O)C(=O)N[C@@H](CC(=O)O)C(=O)N[C@H](C(=O)NCC(=O)N[C@@H](CC(=O)O)C(=O)N[C@H](C(=O)N[C@@H](CCCCN)C(=O)N[C@@H](C)C(=O)N[C@@H](CS)C(=O)N[C@@H](CCC(=O)O)C(=O)N[C@@H](Cc1c[nH]c2ccccc12)C(=O)N[C@@H](C)C(=O)N[C@@H](CS)C(=O)N[C@@H](CCC(N)=O)C(=O)O)C(C)C)[C@@H](C)O` (H-NRFCELFCIQDTGDVKACEWACQ-OH) was 2.1 µM; that for `CC[C@H](C)[C@H](NC(=O)[C@H](CS)NC(=O)[C@H](Cc1ccccc1)NC(=O)[C@H](CC(C)C)NC(=O)[C@H](CCC(=O)O)NC(=O)[C@H](CS)NC(=O)[C@H](Cc1ccccc1)NC(=O)[C@H](CCCNC(=N)N)NC(=O)[C@@H](N)CC(N)=O)C(=O)N[C@@H](CCC(N)=O)C(=O)NCC(=O)N[C@H](C(=O)N[C@@H](CCC(=O)O)C(=O)N[C@@H](CC(=O)O)C(=O)N[C@H](C(=O)N[C@@H](CCCCN)C(=O)N[C@@H](C)C(=O)N[C@@H](CS)C(=O)N[C@@H](CCC(=O)O)C(=O)N[C@@H](Cc1c[nH]c2ccccc12)C(=O)N[C@@H](C)C(=O)N[C@@H](CS)C(=O)N[C@@H](CCC(N)=O)C(=O)O)C(C)C)[C@@H](C)O` (H-NRFCELFCIQGTEDVKACEWACQ-OH) was 3 µM. The compound `CC[C@H](C)[C@H](NC(=O)[C@H](CS)NC(=O)[C@H](Cc1ccccc1)NC(=O)[C@H](CC(C)C)NC(=O)[C@H](CCC(=O)O)NC(=O)[C@H](CS)NC(=O)[C@H](Cc1ccccc1)NC(=O)[C@H](CCCNC(=N)N)NC(=O)[C@@H](N)CC(N)=O)C(=O)N[C@@H](CCC(N)=O)C(=O)NCC(=O)N[C@H](C(=O)NCC(=O)N[C@@H](CC(=O)O)C(=O)N[C@H](C(=O)N[C@@H](CCCCN)C(=O)N[C@@H](C)C(=O)N[C@@H](CS)C(=O)N[C@@H](CCC(=O)O)C(=O)N[C@@H](CCC(=O)O)C(=O)N[C@@H](C)C(=O)N[C@@H](CS)C(=O)N[C@@H](CCC(N)=O)C(=O)O)C(C)C)[C@@H](C)O` (H-NRFCELFCIQGTGDVKACEEACQ-OH) came in with a Ki of 1.3 µM.

With `CC[C@H](C)[C@H](NC(=O)[C@H](CS)NC(=O)[C@H](Cc1ccccc1)NC(=O)[C@H](CC(C)C)NC(=O)[C@H](CCC(=O)O)NC(=O)[C@H](CS)NC(=O)[C@H](Cc1ccccc1)NC(=O)[C@H](CCCNC(=N)N)NC(=O)[C@@H](N)CC(N)=O)C(=O)N[C@@H](CCC(N)=O)C(=O)NCC(=O)N[C@H](C(=O)NCC(=O)N[C@@H](CC(=O)O)C(=O)N[C@H](C(=O)N[C@@H](CCCCN)C(=O)N[C@@H](C)C(=O)N[C@@H](CS)C(=O)N[C@@H](CCC(=O)O)C(=O)N[C@@H](Cc1c[nH]c2ccccc12)C(=O)N[C@@H](C)C(=O)N[C@@H](CS)C(=O)N[C@@H](CCC(N)=O)C(=O)O)C(C)C)[C@@H](C)O` (H-NRFCELFCIQGTGDVKACEWACQ-OH), the affinity corresponds to a Ki of 4.1 µM. The value for `CC[C@H](C)[C@H](NC(=O)[C@H](CS)NC(=O)[C@H](CC1CCCCC1)NC(=O)[C@H](CC(C)C)NC(=O)[C@H](CCC(=O)O)NC(=O)[C@H](CS)NC(=O)[C@H](Cc1ccccc1)NC(=O)[C@H](CCCNC(=N)N)NC(=O)[C@@H](N)CC(N)=O)C(=O)N[C@@H](CCC(N)=O)C(=O)NCC(=O)N[C@H](C(=O)NCC(=O)N[C@@H](CC(=O)O)C(=O)N[C@H](C(=O)N[C@@H](CCCCN)C(=O)N[C@@H](C)C(=O)N[C@@H](CS)C(=O)N[C@@H](CCC(=O)O)C(=O)N[C@@H](Cc1c[nH]c2ccccc12)C(=O)N[C@@H](C)C(=O)N[C@@H](CS)C(=O)N[C@@H](CCC(N)=O)C(=O)O)C(C)C)[C@@H](C)O` (H-NRFCEL[Cha]CIQGTGDVKACEWACQ-OH) was 56 µM. The value for `CC[C@H](C)[C@H](NC(=O)[C@H](CS)NC(=O)[C@H](Cc1ccccc1Cl)NC(=O)[C@H](CC(C)C)NC(=O)[C@H](CCC(=O)O)NC(=O)[C@H](CS)NC(=O)[C@H](Cc1ccccc1)NC(=O)[C@H](CCCNC(=N)N)NC(=O)[C@@H](N)CC(N)=O)C(=O)N[C@@H](CCC(N)=O)C(=O)NCC(=O)N[C@H](C(=O)NCC(=O)N[C@@H](CC(=O)O)C(=O)N[C@H](C(=O)N[C@@H](CCCCN)C(=O)N[C@@H](C)C(=O)N[C@@H](CS)C(=O)N[C@@H](CCC(=O)O)C(=O)N[C@@H](Cc1c[nH]c2ccccc12)C(=O)N[C@@H](C)C(=O)N[C@@H](CS)C(=O)N[C@@H](CCC(N)=O)C(=O)O)C(C)C)[C@@H](C)O` (H-NRFCEL[Phe(2-Cl)]CIQGTGDVKACEWACQ-OH) was 0.4 µM.
